Experiments:
panel of 442 kinases [1] = molecular target: T1, panel of 442 kinases (Homo sapiens, UniProt P36888, N841I); type: binding; conditions: Compound Concentration 10 µM
T1 construct: purchased KINOMEscan
T1 sequence (P36888 27-993 N841I): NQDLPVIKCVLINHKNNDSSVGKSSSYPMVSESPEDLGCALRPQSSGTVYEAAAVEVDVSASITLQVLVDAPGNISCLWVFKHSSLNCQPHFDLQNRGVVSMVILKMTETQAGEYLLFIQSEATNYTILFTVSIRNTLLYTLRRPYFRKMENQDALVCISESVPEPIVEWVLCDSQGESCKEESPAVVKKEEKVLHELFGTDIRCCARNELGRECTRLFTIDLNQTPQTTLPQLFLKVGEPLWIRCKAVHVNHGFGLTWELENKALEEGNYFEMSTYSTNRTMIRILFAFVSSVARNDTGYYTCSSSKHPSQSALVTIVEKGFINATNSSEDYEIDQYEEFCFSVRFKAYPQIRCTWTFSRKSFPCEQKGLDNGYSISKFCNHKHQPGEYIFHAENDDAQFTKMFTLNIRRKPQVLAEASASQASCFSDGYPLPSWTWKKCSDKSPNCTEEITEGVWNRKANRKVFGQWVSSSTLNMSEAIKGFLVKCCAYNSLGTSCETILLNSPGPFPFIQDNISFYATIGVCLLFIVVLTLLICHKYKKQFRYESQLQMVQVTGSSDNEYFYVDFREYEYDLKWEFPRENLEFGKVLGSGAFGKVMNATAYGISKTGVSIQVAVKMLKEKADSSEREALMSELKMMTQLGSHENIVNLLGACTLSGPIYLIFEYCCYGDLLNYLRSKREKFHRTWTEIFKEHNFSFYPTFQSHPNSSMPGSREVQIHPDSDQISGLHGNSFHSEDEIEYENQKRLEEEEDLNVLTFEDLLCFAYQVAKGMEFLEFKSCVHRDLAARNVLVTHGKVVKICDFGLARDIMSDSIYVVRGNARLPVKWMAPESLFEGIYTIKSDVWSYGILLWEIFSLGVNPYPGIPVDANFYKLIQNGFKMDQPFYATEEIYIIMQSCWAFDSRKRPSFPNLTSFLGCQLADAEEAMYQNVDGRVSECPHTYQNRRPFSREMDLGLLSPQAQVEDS
Source text: (§1) We assessed the selectivity of members of this scaffold using the KINOMEscan methodology across a near comprehensive panel of 442 kinases [[18,27]].

panel of 442 kinases [2] = molecular target: T2, panel of 442 kinases (Homo sapiens, UniProt Q6DT37); type: binding; conditions: Compound Concentration 10 µM
T2 construct: purchased KINOMEscan
T2 sequence (Q6DT37 whole entry): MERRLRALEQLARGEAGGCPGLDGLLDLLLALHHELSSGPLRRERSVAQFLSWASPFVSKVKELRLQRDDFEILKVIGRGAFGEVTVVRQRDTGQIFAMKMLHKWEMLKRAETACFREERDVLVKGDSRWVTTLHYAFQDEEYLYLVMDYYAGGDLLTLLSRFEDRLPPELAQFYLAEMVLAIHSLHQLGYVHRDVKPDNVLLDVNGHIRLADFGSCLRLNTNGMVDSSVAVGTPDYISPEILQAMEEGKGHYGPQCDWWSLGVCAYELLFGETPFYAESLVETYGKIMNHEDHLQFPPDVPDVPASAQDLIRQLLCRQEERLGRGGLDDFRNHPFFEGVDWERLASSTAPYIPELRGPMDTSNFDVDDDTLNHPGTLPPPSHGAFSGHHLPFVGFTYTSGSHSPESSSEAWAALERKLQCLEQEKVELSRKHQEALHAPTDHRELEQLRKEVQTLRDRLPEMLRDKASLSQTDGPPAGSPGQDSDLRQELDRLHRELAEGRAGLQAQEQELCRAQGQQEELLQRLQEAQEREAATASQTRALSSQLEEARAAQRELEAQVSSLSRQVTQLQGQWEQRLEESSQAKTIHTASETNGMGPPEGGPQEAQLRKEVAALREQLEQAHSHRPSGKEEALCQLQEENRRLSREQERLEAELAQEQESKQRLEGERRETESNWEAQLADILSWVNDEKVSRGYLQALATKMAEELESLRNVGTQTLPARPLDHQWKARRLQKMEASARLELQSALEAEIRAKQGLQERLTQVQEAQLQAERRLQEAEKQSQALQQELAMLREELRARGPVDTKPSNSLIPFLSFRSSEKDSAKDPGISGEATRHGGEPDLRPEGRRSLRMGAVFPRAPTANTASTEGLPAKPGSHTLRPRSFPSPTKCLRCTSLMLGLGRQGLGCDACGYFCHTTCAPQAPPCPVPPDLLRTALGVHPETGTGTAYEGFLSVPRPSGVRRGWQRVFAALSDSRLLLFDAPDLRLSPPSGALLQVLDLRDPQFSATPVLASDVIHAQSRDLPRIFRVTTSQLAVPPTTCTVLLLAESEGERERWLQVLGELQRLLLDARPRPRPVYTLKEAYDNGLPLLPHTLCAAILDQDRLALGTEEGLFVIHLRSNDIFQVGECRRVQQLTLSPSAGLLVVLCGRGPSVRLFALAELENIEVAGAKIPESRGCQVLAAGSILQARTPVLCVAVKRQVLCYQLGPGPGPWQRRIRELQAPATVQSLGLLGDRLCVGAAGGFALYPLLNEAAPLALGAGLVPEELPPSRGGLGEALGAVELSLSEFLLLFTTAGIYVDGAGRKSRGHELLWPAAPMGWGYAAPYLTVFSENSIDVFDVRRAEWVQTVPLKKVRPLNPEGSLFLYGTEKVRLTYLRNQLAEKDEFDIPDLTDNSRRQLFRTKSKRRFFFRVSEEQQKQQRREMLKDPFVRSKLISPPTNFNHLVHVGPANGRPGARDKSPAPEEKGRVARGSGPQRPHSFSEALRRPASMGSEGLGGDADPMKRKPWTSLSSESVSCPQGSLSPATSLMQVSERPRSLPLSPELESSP
Source text: as §1

Compound | KINOMEscan: FLT3(N841I) (panel of 442 kinases [1]) | KINOMEscan: DMPK2 (panel of 442 kinases [2])
COc1cc(C(=O)N2CCC(N3CCN(C)CC3)CC2)ccc1Nc1ncc2c(n1)N(C)c1ccccc1C(=O)N2C [15 (LRRK2-IN-1)] | 73 | 100
COc1cc(C(=O)N2CCC(N3CCN(C)CC3)CC2)ccc1Nc1ncc2c(n1)N1CCc3cccc(c31)C(=O)N2C [Compound 24] | 55 | 
COc1cc(C(=O)N2CCC(N3CCN(C)CC3)CC2)ccc1Nc1ncc2c(n1)N(C1CCCC1)c1ccccc1C(=O)N2C [Compound 25, 11-cyclopentyl-2-((2-methoxy-4-(4-(4-methylpiperazin-1-yl)piperidine-1-carbonyl)phenyl)amino)-5-methyl-5H-benzo[e]pyrimido[5,4-b][1,4]diazepin-6(11H)-one] | 90 | 94
CCOc1cc(C(=O)N2CCC(N3CCN(C)CC3)CC2)ccc1Nc1ncc2c(n1)N(C1CCCC1)c1ccccc1C(=O)N2C [Compound 26] | 100 | 100

From paper PMC3914206
